This is an account of results in patent US4812442A, “Tripeptide renin inhibitors” (priority 1987, dated 1989).

pIC50: −log10 of the molar value. Counter-ions that a name gives are not always drawn. Square brackets hold non-standard residues; d marks the D form. Peptide text beside a SMILES is read from it. * marks the point of attachment. Sta = CC(C)C[C@H](N)[C@@H](O)CC(=O)O; Isovaleryl = CC(C)CC(=O)*

In one experiment the test system is nephrectomized rats.
Experiment: not given
The note with it: after the injection of hog renin into nephrectomized rats; cited from earlier work.
Consider `CC(C)CC(=O)N[C@H](C(=O)N[C@H](C(=O)N[C@@H](CC(C)C)[C@@H](O)CC(=O)N[C@@H](C)C(=O)N[C@@H](CC(C)C)[C@@H](O)CC(=O)O)C(C)C)C(C)C` [pepstatin] (Isovaleryl-VV[Sta]A[Sta]-OH), for which the “effect on blood pressure in vivo” value is on record as “reduces blood pressure”.

The target of a further experiment is T1, renin (Homo sapiens, UniProt P00797).
T1 sequence (P00797 67-406): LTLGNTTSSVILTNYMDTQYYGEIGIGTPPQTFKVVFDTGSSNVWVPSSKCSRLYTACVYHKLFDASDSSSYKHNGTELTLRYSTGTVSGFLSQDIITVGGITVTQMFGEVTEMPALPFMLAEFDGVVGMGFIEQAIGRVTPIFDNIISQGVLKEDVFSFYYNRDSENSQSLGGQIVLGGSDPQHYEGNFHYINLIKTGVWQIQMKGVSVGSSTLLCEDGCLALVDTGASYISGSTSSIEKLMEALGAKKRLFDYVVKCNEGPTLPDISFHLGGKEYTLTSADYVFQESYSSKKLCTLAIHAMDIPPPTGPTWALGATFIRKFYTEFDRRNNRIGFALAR
The experiment can be described thus: Renin inhibition IC50 (methods of J. Med. Chem., 1985, 28, 1789-1790).
Settings: not given
The class given is biochemical. From the text:
The following examples are intended to be representative and not limiting. IC50 results were obtained according to the methods described in J. Med. Chem., 1985, 28, 1789-1790.
As for `CC(C)(C)OC(=O)N[C@@H](Cc1ccccc1)C(=O)N[C@@H](Cc1c[nH]cn1)C(=O)N[C@@H](CC1CCCCC1)[C@@H](O)CC(=O)NC1C[N+]2(C)CCC1CC2` (stereo partly drawn) [Example 2, N^α -t-butoxycarbonyl-L-phenylalanyl-L-histidyl-(3S,4S)-4-amino-5-cyclohexyl-3-hydroxy-pentanoyl-1-methylquinuclidium-3-yl amide acetate], the pIC50 (commonly −log10 of the IC50, conventionally taken in molar units) was 7.42.
In turn, `CC(C)(C)OC(=O)N[C@@H](Cc1ccccc1)C(=O)N[C@@H](Cc1c[nH]cn1)C(=O)N[C@@H](CC1CCCCC1)[C@@H](O)CC(=O)NC1C[N+]2(CCCCO)CCC1CC2` (stereo partly drawn) [Example 3, N^α -t-butoxycarbonyl-L-phenylalanyl-L-histidyl(3S,4S)-4-amino-5-cyclohexyl-3-hydroxypentanoyl-1-(4-hydroxybutyl)-quinuclidinium-3-yl amide acetate] had a pIC50 of 7.48.

Still in this experiment, the particulars now being: renin inhibition; read-out: IC50.
With `CC(C)(C)OC(=O)N[C@@H](Cc1ccccc1)C(=O)N[C@@H](Cc1c[nH]cn1)C(=O)N[C@@H](CC1CCCCC1)[C@@H](O)CC(=O)NC1CN2CCC1CC2` (stereo partly drawn) [Example 1, N^α -t-butoxycarbonyl-L-phenylalanyl-L-histidyl(3S,4S)-4-amino-5-cyclohexyl-3-hydroxypentanoyl-3-quinuclidinyl amide], the negative-log IC50 (pIC50) was 7.48.
Same read-out and setting: then `CC(C)(C)OC(=O)N[C@@H](Cc1ccccc1)C(=O)N[C@@H](Cc1c[nH]cn1)C(=O)N[C@@H](CC1CCCCC1)[C@@H](O)CC(=O)NC1C[N+]2([O-])CCC1CC2` (stereo partly drawn) [Example 4, N^α -t-butoxycarbonyl-L-phenylalanyl-L-histidyl-(3S,4S)-4-amino-5-cyclohexyl-3-hydroxypentanoyl-quinuclidinium-3-yl-1-oxide amide], with 7.70.
Same read-out and setting: then `CC(C)(C)OC(=O)N[C@@H](Cc1ccccc1)C(=O)N[C@@H](Cc1c[nH]cn1)C(=O)N[C@@H](CC1CCCCC1)[C@@H](O)CC(=O)N1CCSCC1` [Example 5, Boc-Phe-His-ACHPA-4-thiamorpholine], with 7.72; and `CC(C)(C)OC(=O)N[C@@H](Cc1ccccc1)C(=O)N[C@@H](Cc1c[nH]cn1)C(=O)N[C@@H](CC1CCCCC1)[C@@H](O)CC(=O)N1CC[S+]([O-])CC1` [Example 6, Boc-Phe-His-ACHPA-4-thiamorpholine-1-oxide], with 7.17; and `CC(C)(C)OC(=O)N[C@@H](Cc1ccccc1)C(=O)N[C@@H](Cc1c[nH]cn1)C(=O)N[C@@H](CC1CCCCC1)[C@@H](O)CC(=O)N1CCS(=O)(=O)CC1` [Example 7, Boc-Phe-His-ACHPA-4-thiamorpholine-1,1-dioxide], with 7.26.
In the case of `CC[C@H](C)NC(=O)C[C@H](O)[C@H](CC1CCCCC1)NC(=O)[C@H](Cc1c[nH]cn1)NC(=O)[C@H](Cc1ccccc1)NC(=O)OC(C)(C)C` [Example 9, N^α -t-butoxycarbonyl-L-phenylalanyl-L-histidyl(3S,4S)-4-amino-5-cyclohexyl-3-hydroxypentanoyl-2S-(+)-butyl amide], the negative-log IC50 (pIC50) was 7.49.
The same measure, in the same setting: then `CC[C@H](C)[C@@H](CN)NC(=O)C[C@H](O)[C@H](CC1CCCCC1)NC(=O)[C@H](Cc1c[nH]cn1)NC(=O)[C@H](Cc1ccccc1)NC(=O)OC(C)(C)C` [Example 11], with 7.48; and `CC[C@H](C)[C@@H](CN(C)C)NC(=O)C[C@H](O)[C@H](CC1CCCCC1)NC(=O)[C@H](Cc1c[nH]cn1)NC(=O)[C@H](Cc1ccccc1)NC(=O)OC(C)(C)C` [Example 12], with 8.30.
Regarding `CC(C)C[C@H](NC(=O)[C@H](Cc1ccccc1)NC(=O)[C@H](Cc1ccccc1)NC(=O)OC(C)(C)C)[C@@H](O)CC(=O)N1CCN(c2cccc[n+]2[O-])CC1` [Example 17], the pIC50 is 5.70.
On the same count and under the same terms, then `CC[C@H](C)[C@@H](C[N+](C)(C)C)NC(=O)C[C@H](O)[C@H](CC1CCCCC1)NC(=O)[C@H](Cc1c[nH]cn1)NC(=O)[C@H](Cc1ccccc1)NC(=O)OC(C)(C)C` [Example 18, di-acetate salt], with 7.82; and `CC[C@H](C)[C@@H](C[N+](C)(C)CCO)NC(=O)C[C@H](O)[C@H](CC1CCCCC1)NC(=O)[C@H](Cc1c[nH]cn1)NC(=O)[C@H](Cc1ccccc1)NC(=O)OC(C)(C)C` [Example 19, acetate salt], with 8.00.
